On series [1], the source says:
It is understood that often arrangements must be made also for the storage of the preparation according to the invention so that said preparation will remain stable over an extended period of time. […] Hereby, it is possible to store the low-molecular thiol compound and the nitrosated protein of the preparation according to the invention both in combined and in separate form.

The subject of series [2] is collagen-induced platelet aggregation. Nature of the series: collagen-induced platelet aggregation in human plasma rich in thrombocytes (aggregometer, method by Born). Type of series: cell-based. The conditions noted are these: 300 μmol/L, ~1 μg collagen/mL TRP.
Experimental: The platelet aggregation was performed with human plasma rich in thrombocytes (TRP) in a Dual Kanal Chronolog Aggregometer basically according to the method by Born (1969). At the onset of each experiment, the exact dose of collagen was determined for the aggregation induced by collagen (˜1 μg collagen/mL TRP) (95-100% inhibition of the collagen-induced aggregation by 300 μmol/L of acetylsalicylic acid). […] After another minute, aggregation was induced with collagen. Control experiments with collagen alone were carried out after every second to third measurement. […] In experiments with different thiol- and non-thiol-containing substances (N-acetyl-L-cysteine, ascorbic acid, DL-homocysteine, taurine, L-cysteine), pre-incubation was effected primarily with those substances, in analogy to the trials using reduced glutathione.

For `N[C@@H](CS)C(=O)O` [L-cysteine], in series [1], the “pH-value at which stability in solution is greatest” value is listed as < 7.

In the case of `CC(=O)Oc1ccccc1C(=O)O` [acetylsalicylic acid], in series [2], the inhibition at 300 µM fell in the range of 95 to 100%.

Regarding haemoglobin, the “pH-value at which stability in solution is greatest” value in series [1] is 6 and 7.

As usually defined, the inhibition is the drop in the measured response relative to a control, in per cent.
